The values below come from US20240025919A1, “AZA-TETRACYCLIC OXAZEPINE COMPOUNDS AND USES THEREOF” (Genentech, Inc., priority 2022, published 2024).

The structures appear in SMILES notation.

In test [1] the target is T1, KRAS WT (Homo sapiens (Human), UniProt P01116). Description: KRAS WT Biochemical Assay, BODIPY-GDP Exchange TR-FRET (Example 501; 3 nM KRAS WT, 3 nM SOS1, 60-minute incubation). The conditions noted are these: read-out: KRas(wt) GDP HTRF IC50. The method in brief: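 SOS1-mediated exchange assay: 3 nM biotin-KRAS WT with terbium-streptavidin, started with 3 nM SOS1 and 300 nM BODIPY-GDP, HEPES pH 7.5 with MgCl2. TR-FRET (520/490 nm) read after 60 min; normalized to DMSO and full-inhibition control, IC50 from 4-parameter Hill fit.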

Test [2] has as its target T1, KRAS WT. Put plainly: KRAS WT Biochemical Assay, BODIPY-GDP Exchange TR-FRET (Example 502; 0.06 nM KRAS WT, 15 nM GDP, 300 nM SOS1, 120-minute incubation). The conditions noted are these: read-out: KRas HTRF IC50. The method in brief: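 IC50 from a 4-parameter Hill fit of percent inhibition, itself the TR-FRET 520/490 nm ratio scaled between DMSO and a fully inhibiting control. Reaction: 300 nM SOS1 and 300 nM BODIPY-GDP added to preformed 0.06 nM KRAS WT/15 nM GDP/Tb-streptavidin complex; 120 min incubation; pH 7.5 HEPES, MgCl2, DTT.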

For test [3], the target named is KRAS G12D (Homo sapiens (Human), UniProt P01116, G12D). Description: KRAS G12D LoEnz Biochemical Assay, BODIPY-GDP Exchange TR-FRET (SOS1-mediated nucleotide exchange). Conditions: read-out: KRas (G12D) GDP HTRF IC50.
Chain of KRAS G12D (P01116-2 other isoform, or with tags, fused parts or gaps G12D): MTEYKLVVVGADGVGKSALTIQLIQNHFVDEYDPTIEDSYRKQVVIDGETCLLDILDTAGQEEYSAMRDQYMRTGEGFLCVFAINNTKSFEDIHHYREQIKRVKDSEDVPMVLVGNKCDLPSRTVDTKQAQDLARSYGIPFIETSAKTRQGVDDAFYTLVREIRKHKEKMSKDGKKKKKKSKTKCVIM

T1 sequence (P01116-2 other isoform, or with tags, fused parts or gaps): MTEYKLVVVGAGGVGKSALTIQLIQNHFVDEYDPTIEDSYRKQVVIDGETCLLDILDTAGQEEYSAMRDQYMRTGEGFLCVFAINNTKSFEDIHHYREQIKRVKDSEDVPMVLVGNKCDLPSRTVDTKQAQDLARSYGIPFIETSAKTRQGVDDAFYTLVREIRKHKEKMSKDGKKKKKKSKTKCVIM

As to `CCc1cccc2cc(O)cc(-c3nc4c5c(nc(OC[C@@]67CCCN6C[C@H](F)C7)nc5c3F)N3C[C@H]5CC[C@H](N5)[C@H]3[C@H](C)O4)c12` [Compound 10, 5-ethyl-4-((5S,5aS,6S,9R)-1-fluoro-12-(((2R,7aS)-2-fluorotetrahydro-1H-pyrrolizin-7a(5H)-yl)methoxy)-5-methyl-5a,6,7,8,9,10-hexahydro-5H-4-oxa-3,10a,11,13,14-pentaaza-6,9-methanonaphtho[1,8-ab]heptalen-2-yl)naphthalen-2-ol], the figures for the IC50 in test [1], in test [2] and in test [3] were 6.46 nM, 13.3 nM and 0.082 nM, respectively.

Regarding `Cc1cc(-c2nc3c4c(nc(OC[C@@]56CCCN5C[C@H](F)C6)nc4c2F)N2C[C@H]4CC[C@H](N4)[C@H]2[C@H](C)O3)cc(N)c1F` [Compound 13, 2-fluoro-5-((5S,5aS,6S,9R)-1-fluoro-12-(((2R,7aS)-2-fluorotetrahydro-1H-pyrrolizin-7a(5H)-yl)methoxy)-5-methyl-5a,6,7,8,9,10-hexahydro-5H-4-oxa-3,10a,11,13,14-pentaaza-6,9-methanonaphtho[1,8-ab]heptalen-2-yl)-3-methylaniline], the concentration for half-maximal inhibition (IC50) in test [1] is 1540 nM; in test [2], 1770 nM; in test [3], 30.7 nM.

Take `Cc1c(F)c(N)cc(-c2nc3c4c(nc(OC[C@@]56CCCN5C[C@H](F)C6)nc4c2F)N2C[C@H]4CC[C@H](N4)[C@H]2[C@H](C)O3)c1C(F)(F)F` [Compound 6, 2-Fluoro-5-((5S,5aS,6S,9R)-1-fluoro-12-(((2R,7aS)-2-fluorotetrahydro-1H-pyrrolizin-7a(5H)-yl)methoxy)-5-methyl-5a,6,7,8,9,10-hexahydro-5H-4-oxa-3,10a,11,13,14-pentaaza-6,9-methanonaphtho[1,8-ab]heptalen-2-yl)-3-methyl-4-(trifluoromethyl)aniline]: the results for the IC50 in test [1], in test [2] and in test [3] were 0.48 nM, 0.548 nM and 0.074 nM, respectively.

As to `C[C@@H]1Oc2nc(-c3cc(N)cc(F)c3C(F)(F)F)c(F)c3nc(OC[C@@]45CCCN4C[C@H](F)C5)nc(c23)N2C[C@H]3CC[C@H](N3)[C@@H]12` [Compound 17, 3-fluoro-5-((5S,5aS,6S,9R)-1-fluoro-12-(((2R,7aS)-2-fluorotetrahydro-1H-pyrrolizin-7a(5H)-yl)methoxy)-5-methyl-5a,6,7,8,9,10-hexahydro-5H-4-oxa-3,10a,11,13,14-pentaaza-6,9-methanonaphtho[1,8-ab]heptalen-2-yl)-4-(trifluoromethyl)aniline], the figures for the IC50 in test [1], in test [2] and in test [3] were 0.559 nM, 1.05 nM and 0.133 nM, respectively.

As for `C#Cc1c(F)ccc2cc(O)cc(-c3nc4c5c(nc(OC[C@@]67CCCN6C[C@H](F)C7)nc5c3F)N3C[C@H]5CC[C@H](N5)[C@H]3[C@H](C)O4)c12` [Compound 7, 5-Ethynyl-6-fluoro-4-((5S,5aS,6S,9R)-1-fluoro-12-(((2R,7aS)-2-fluorotetrahydro-1H-pyrrolizin-7a(5H)-yl)methoxy)-5-methyl-5a,6,7,8,9,10-hexahydro-5H-4-oxa-3,10a,11,13,14-pentaaza-6,9-methanonaphtho[1,8-ab]heptalen-2-yl)naphthalen-2-ol], the IC50 in test [1] was 0.296 nM; in test [2] it was 0.288 nM; in test [3], 0.059 nM.

Take `Cc1c(F)c(N)cc(-c2nc3c4c(nc(OC[C@@H]5CC[C@H]6COCCN65)nc4c2F)N2C[C@H]4CC[C@H](N4)[C@H]2[C@H](C)O3)c1C(F)(F)F` [Compound 31, 2-fluoro-5-((5S,5aS,6S,9R)-1-fluoro-12-(((6S,8aS)-hexahydro-1H-pyrrolo[2,1-c][1,4]oxazin-6-yl)methoxy)-5-methyl-5a,6,7,8,9,10-hexahydro-5H-4-oxa-3,10a,11,13,14-pentaaza-6,9-methanonaphtho[1,8-ab]heptalen-2-yl)-3-methyl-4-(trifluoromethyl)aniline]: the IC50 in test [1] was determined as 1.55 nM; in test [2], 7.11 nM; in test [3], 0.087 nM.

Take `C=C1CN2CCC[C@@]2(COc2nc3c4c(nc(-c5cc(O)cc6cccc(CC)c56)c(F)c4n2)O[C@@H](C)[C@@H]2[C@@H]4CC[C@H](CN32)N4)C1` [Compound 80]: the half-maximal inhibitory concentration (IC50) was 3.39 nM in test [1], 3.48 nM in test [2] and 0.068 nM in test [3].

`Cc1cc(-c2nc3c4c(nc(OC[C@@]56CCCN5C[C@H](F)C6)nc4c2F)N2C[C@H]4CC[C@H](N4)[C@H]2[C@H](C)O3)c(F)c(N)n1` [Compound 177, 3-Fluoro-4-((5S,5aS,6S,9R)-1-fluoro-12-(((2R,7aS)-2-fluorotetrahydro-1H-pyrrolizin-7°(5H)-yl)methoxy)-5-methyl-5°,6,7,8,9,10-hexahydro-5H-4-oxa-3,10°,11,13,14-pentaaza-6,9-methanonaphtho[1,8-ab]heptalen-2-yl)-6-methylpyridin-2-amine]: the half-inhibitory concentration (IC50) in test [2] is 11700 nM; in test [3] it was 126 nM.

As to `Cc1c(F)c(N)cc(-c2nc3c4c(nc(OCC5(CN6CCOC[C@H]6C)CC5)nc4c2F)N2C[C@H]4CC[C@H](N4)[C@H]2[C@H](C)O3)c1C(F)(F)F` [Compound 129, 2-Fluoro-5-((5S,5aS,6S,9R)-1-fluoro-5-methyl-12-((1-(((R)-3-methylmorpholino)methyl)cyclopropyl)methoxy)-5a,6,7,8,9,10-hexahydro-5H-4-oxa-3,10a,11,13,14-pentaaza-6,9-methanonaphtho[1,8-ab]heptalen-2-yl)-3-methyl-4-(trifluoromethyl)aniline], the IC50 in test [2] came out at 3.87 nM; in test [3], 0.18 nM.

For `Cc1c(F)c(N)cc(-c2nc3c4c(nc(OC[C@H](F)CN5CC6(COC6)C5)nc4c2F)N2C[C@H]4CC[C@H](N4)[C@H]2[C@H](C)O3)c1C(F)(F)F` [Compound 144], the 50% inhibitory concentration (IC50) in test [2] turned out to be 99.5 nM; in test [3] it was 0.5 nM.

For the compound `C[C@@H]1Oc2nc(-c3c(C(F)(F)F)cc(F)c(N)c3F)c(F)c3nc(OC[C@@]45CCCN4C[C@H](F)C5)nc(c23)N2C[C@H]3CC[C@H](N3)[C@@H]12` [Compound 90, 2,6-Difluoro-3-((5S,5aS,6S,9R)-1-fluoro-12-(((2R,7aS)-2-fluorotetrahydro-1H-pyrrolizin-7a(5H)-yl)methoxy)-5-methyl-5a,6,7,8,9,10-hexahydro-5H-4-oxa-3,10a,11,13,14-pentaaza-6,9-methanonaphtho[1,8-ab]heptalen-2-yl)-4-(trifluoromethyl)aniline], the IC50 was 71.6 nM in test [2] and 0.47 nM in test [3].

As to `Cc1c(F)c(N)cc(-c2nc3c4c(nc(OCC[C@@H]5CC[C@H]6COCCN56)nc4c2F)N2C[C@H]4CC[C@H](N4)[C@H]2[C@H](C)O3)c1C(F)(F)F` [Compound 154, 2-Fluoro-5-((5S,5aS,6S,9R)-1-fluoro-12-(2-((6S,8aS)-hexahydro-1H-pyrrolo[2,1-c][1,4]oxazin-6-yl)ethoxy)-5-methyl-5a,6,7,8,9,10-hexahydro-5H-4-oxa-3,10a,11,13,14-pentaaza-6,9-methanonaphtho[1,8-ab]heptalen-2-yl)-3-methyl-4-(trifluoromethyl)aniline], the IC50 in test [2] amounted to 118 nM; in test [3] it was 0.47 nM.

Consider `Cc1c(F)c(N)cc(-c2nc3c4c(nc(OC[C@@H]5CC[C@@H]6CC(C(=O)N(C)C)CCN65)nc4c2F)N2C[C@H]4CC[C@H](N4)[C@H]2[C@H](C)O3)c1C(F)(F)F` (single isomer, unassigned) [133 (isomer 3)], for which the 50% inhibitory concentration (IC50) in test [2] was 23.3 nM; in test [3], 0.14 nM.

With `C[C@@H]1Oc2nc(-c3cc(N)c(F)cc3C(C)(F)F)c(F)c3nc(OC[C@@]45CCCN4C[C@H](F)C5)nc(c23)N2C[C@H]3CC[C@H](N3)[C@@H]12` [Compound 73, 4-(1,1-difluoroethyl)-2-fluoro-5-((5S,5aS,6S,9R)-1-fluoro-12-(((2R,7aS)-2-fluorotetrahydro-1H-pyrrolizin-7a(5H)-yl)methoxy)-5-methyl-5a,6,7,8,9,10-hexahydro-5H-4-oxa-3,10a,11,13,14-pentaaza-6,9-methanonaphtho[1,8-ab]heptalen-2-yl)aniline], the half-maximal inhibitory concentration (IC50) in test [2] was 36.3 nM; in test [3] it was 2.6 nM.

On to `Cc1c(F)c(N)cc(-c2nc3c4c(nc(OC[C@@H]5CC[C@H]6C[C@@H](F)CN56)nc4c2F)N2C[C@H]4CC[C@H](N4)[C@H]2[C@H](C)O3)c1C(F)(F)F` (single isomer, unassigned) [152 (isomer 1)], for which the figures for the IC50 in test [2] and in test [3] were 15.7 nM and 0.1 nM, respectively.

For `Cc1cc(N)cc(-c2nc3c4c(nc(OC[C@@H]5CC[C@H]6COCCN65)nc4c2F)N2C[C@H]4CC[C@H](N4)[C@H]2[C@H](C)O3)c1C(F)(F)F` [Compound 67, 3-((5S,5aS,6S,9R)-1-Fuoro-1-(((6S,8aS)-hexahydro-1H-pyrrolo[2,1-c][1,4]oxazin-6-yl)methoxy)-5-methyl-5a,6,7,8,9,10-hexahydro-5H-4-oxa-3,10a,11,13,14-pentaaza-6,9-methanonaphtho[1,8-ab]heptalen-2-yl)-5-methyl-4-(trifluoromethyl)aniline], the values for the 50% inhibitory concentration (IC50) in test [2] and in test [3] were 7.53 nM and 0.17 nM, respectively.

Consider `Cc1c(F)c(N)cc(-c2nc3c4c(nc(OCC5(CN6CCOCC6)CC5)nc4c2F)N2C[C@H]4CC[C@H](N4)[C@H]2[C@H](C)O3)c1C(F)(F)F` [Compound 118, 2-Fluoro-5-((5S,5aS,6S,9R)-1-fluoro-5-methyl-12-((1-(morpholinomethyl)cyclopropyl)methoxy)-5a,6,7,8,9,10-hexahydro-5H-4-oxa-3,10a,11,13,14-pentaaza-6,9-methanonaphtho[1,8-ab]heptalen-2-yl)-3-methyl-4-(trifluoromethyl)aniline], for which the values for the 50% inhibitory concentration (IC50) in test [2] and in test [3] were 1.76 nM and 0.09 nM, respectively.
